{"source": "patent US20130029959A1", "about": "“COMPOSITIONS AND METHODS FOR THE TREATMENT OF CANCER” (Massachusetts Institute of Technology, priority 2011, published 2013)", "key": {"calf thymus DNA": {"tested_on": "calf thymus DNA", "assay": "Ethidium bromide DNA-binding competition, Scatchard analysis", "parameters": "key: competitive (type A); non-competitive (type D); both (type B); No inhibition of ethidium binding is labeled as type C", "text": "Using this approach, it is possible to determine whether the inhibition of ethidium binding is competitive (type A), non-competitive (type D), or both (type B). No inhibition of ethidium binding is labeled as type C."}, "[1]": {"assay": "Aquation in D2O by 1H NMR", "conditions": "37° C.", "experimental": "The 1-D ^1H NMR kinetic studies were performed in duplicate as a standard time-arrayed experiment using a variable delayed list. Incremented 1-D spectra were processed in exactly the same way and signals of aromatic amine ligands from platinum compounds were integrated. The relative concentrations of the platinum compound at each time point were calculated from peak integrals. […] Reactions of platinum compounds with 5′-dGMP were performed in NMR tubes containing 2 mM of the platinum compounds and 32 mM (16 equiv) of 5′-dGMP in 10 mM PBS buffer, D2O, pH*7.4 at 37° C."}, "pGLuc plasmid": {"tested_on": "pGLuc plasmid", "assay": "Global platination of pGLuc plasmid", "conditions": "for level of DNA-bound compound per amount added (rb vs. rf): 16 h, 24 mM HEPES pH 7.4, 10 mM NaCl; for level of DNA-bound compound per amount added (rb vs. rf) / rb (bound Pt/nucleotide): 37° C.", "experimental": "The resulting mixtures were dialyzed (molecular weight cut-off 3.5 kDa) against ddH2O overnight at 4° C. with five changes of ddH2O. The rb values (bound Pt/nucleotide) were determined by UV/Vis and atomic absorption spectroscopy.\nIn one embodiment, the ratio of bound platinum per plasmid was determined by measuring the Pt concentration by atomic absorption spectroscopy and the DNA concentration by UV/Vis spectroscopy."}, "[2]": {"tested_on": "GLuc expression from transfected A549 cells", "assay": "GLuc transcription assay, globally platinated probes, A549", "assay_type": "cell-based, human", "conditions": "for transcription inhibition, in words: globally platinated probes; for transcription level (normalized against unplatinated plasmid): Pt/DNA ratio of […] for phenanthriplatin", "protocol": "(§1) Transfection of transcription probes into A549 and HT29 cells with the pGLuc plasmid was carried out using liposomal transfecting agents. Determination of expression levels was tested by Luciferase assays monitored by a luminometer (J. Am. Chem. Soc. 2010, 132, 7429-7435). A549 cells were plated in 96-well plates at 2,000 cells/well and HT29 cells were plated in 96-well plates at 6,000 cells/well. After 48 h incubation (at ˜30% confluence), cells were transfected with 50 ng of platinated plasmids in 25 μL Opti-MEM and 0.125 μL Lipofectamine 2000, and subsequently 50 μL of antibiotics-free DMEM supplemented with 10% FBS. After 2 h, the cells were washed with medium and 100 μL of fresh medium was added. The experiment was carried out in quadruplicate.\n(§2) GLuc activity was monitored using a luminescence plate reader (Synergy 2, BioTek, Winooski, Vt., USA). A 10 μL volume of medium at different time points (12, 24, 36, 48, 60 h) was transferred into opaque white 96-well plates, and 25 μL of GLuc assay solution (10 μM colelenterazine (NanoLight Technologies, Pinetop, Ariz., USA) in 2.5 mM acidified methanol (100 mM HCl), buffer (10 mM Tris-HCl pH 7.8, 1 mM EDTA, 0.6 M NaCl)) was added by the automatic injector of the instrument.\n(§3) Investigations of the cellular processing of Pt-DNA lesions are important for understanding the mechanism of action of platinum drugs. One of the major consequences of Pt-DNA damage is transcription inhibition, the extent of which dictates the efficacy of Pt drugs.\n(§4) A549 or HT29 cells were transfected using these platinated transcription probes for 2 h at 37° C. and cell media were collected at 12, 24, 36, 48, and 60 h after the transfection. The levels of GLuc expression in cells were measured using a luminometer. The intensity values were normalized against controls (unplatinated plasmid). Transcription profiles were obtained by plotting normalized levels of GLuc expression against platination levels (Pt/plasmid ratio) at five different time points (FIG. 5). […] In FIG. 5: transcription profiles of globally platinated probes in A549 (top) and HT29 (bottom) cells.\n(§5) In another embodiment, A549 or HT29 cells were transfected using the platinated transcription probes, and transcription levels were investigated by determining GLuc expression as measured by […] following addition of coelenterazine as a substrate for the exported enzyme. The emission intensities were normalized against unplatinated plasmids as a control. Transcription profiles were obtained by plotting normalized levels of GLuc expression against platination levels (Pt/plasmid ratio) at five different time points. […] An increase in D0 value at different time points represents restoration of transcription."}, "[3]": {"tested_on": "GLuc expression from transfected HT29 cells", "assay": "GLuc transcription assay, globally platinated probes, HT29", "assay_type": "cell-based, human", "conditions": "for transcription inhibition, in words: globally platinated probes; for transcription level (normalized against unplatinated plasmid): Pt/DNA ratio of […] for phenanthriplatin", "protocol": "as §1, §2, §3, §4, §5"}, "[4]": {"tested_on": "human lung carcinoma A549 cells", "assay": "MTT assay, A549 cells", "assay_type": "cell-based", "experimental": "(§6) Solutions of the platinum compounds were freshly prepared in sterile PBS before use and their concentrations quantitated by atomic absorption spectroscopy. Cells were seeded on a 96-well plate (1200 cells per well for cancer cells and 1800 cells per well for the normal lung fibroblasts) in 100 μL RPMI or DMEM media, and incubated for 24 h. […] The cells were then treated with 20 μL of 3-(4,5-dimethylthiazol-2-yl)-2,5-diphenyltetrazolium bromide (MTT) (5 mg/mL in PBS) and incubated for 4 h. The medium was removed, 100 μL of DMSO was added to the cells, and the absorbance of the purple formazan was recorded at 560 nm using a BioTek Synergy HT multi-detection microplate plate reader. Each condition was performed in triplicate and three independent experiments were carried out for each cell line.\nSolutions of the platinum agents were freshly prepared in sterile PBS before use and the platinum content was quantitated by AAS. Cells were seeded on 96 well plates (1200 cells per well) in 100 μL RPMI or DMEM media\\ and incubated for 24 hours. […] The cells were then treated with 20 μL of 3-(4,5-dimethylthiazol-2-yl)-2,5-diphenyltetrazolium bromide (MTT) (5 mg/mL in PBS) and incubated for 4 h. The medium was removed, 100 μL of DMSO were added to the cells, and the absorbance of the purple formazan was recorded at 570 nm using a BioTek Synergy HT multi-detection microplate plate reader. For each cell line, three independent experiments were carried out in triplicate."}, "NTera2 (Testis) cells": {"tested_on": "NTera2 (Testis) cells", "assay": "MTT assay, NTera2 cells", "assay_type": "cell-based, human", "conditions": "72-h incubation, Table 3", "experimental": "as §6"}, "[5]": {"tested_on": "human bone sarcoma U2OS cells", "assay": "MTT assay, U2OS cells", "assay_type": "cell-based", "conditions": "72-h incubation", "protocol": "Human colon carcinoma HT29, human breast carcinoma MCF7, human bone sarcoma U2OS, human prostate carcinoma PC3, and human cervix carcinoma HeLa cells were obtained from the ATCC. A2780/CP70 cisplatin-resistant human ovarian cancer cells were kindly provided by Dr. Stephen B. Howell (Moores UCSD Cancer Center) and the human lung carcinoma cell lines A549 and normal lung fibroblast MRC5 by David E. Root (Whitehead Institute for Biomedical Research). Cells were incubated at 37° C. in 5% CO2 and grown in RPMI (HT29, A2780/CP70, and PC3) or DMEM (A549, MRC5, HeLa, MCF7, and U2OS) medium supplemented with 10% fetal bovine serum and 1% penicillin/streptomycin. Cells were passed every 3 to 4 days and restarted from a frozen stock upon reaching pass number 20.\nSolutions of the platinum compounds were freshly prepared in sterile PBS before use and their concentrations quantitated by atomic absorption spectroscopy. […] The cells were then treated with 20 μL of 3-(4,5-dimethylthiazol-2-yl)-2,5-diphenyltetrazolium bromide (MTT) (5 mg/mL in PBS) and incubated for 4 h. The medium was removed, 100 μL of DMSO was added to the cells, and the absorbance of the purple formazan was recorded at 560 nm using a BioTek Synergy HT multi-detection microplate plate reader. Each condition was performed in triplicate and three independent experiments were carried out for each cell line. […]"}, "[6]": {"tested_on": "human cervix carcinoma HeLa cells", "assay": "MTT assay, HeLa cells", "assay_type": "cell-based", "conditions": "72-h incubation, Table 5", "experimental": "as §6\nSolutions of the platinum agents were freshly prepared in sterile PBS before use and the platinum content was quantitated by AAS. […] The medium was removed, 100 μL of DMSO were added to the cells, and the absorbance of the purple formazan was recorded at 570 nm using a BioTek Synergy HT multi-detection microplate plate reader. […]"}, "[7]": {"tested_on": "normal lung fibroblast MRC5", "assay": "MTT assay, MRC5 cells", "assay_type": "cell-based, human", "conditions": "MRC5, 72-h incubation, Table 5", "experimental": "as §6"}, "[8]": {"tested_on": "human colon carcinoma HT29 cells", "assay": "MTT assay, HT29 cells", "assay_type": "cell-based", "conditions": "HT29, 72-h incubation, Table 5", "experimental": "Solutions of the platinum compounds were freshly prepared in sterile PBS before use and their concentrations quantitated by atomic absorption spectroscopy. Cells were seeded on a 96-well plate (1200 cells per well for cancer cells and 1800 cells per well for the normal lung fibroblasts) in 100 μL RPMI or DMEM media, and incubated for 24 h. […] The medium was removed, 100 μL of DMSO was added to the cells, and the absorbance of the purple formazan was recorded at 560 nm using a BioTek Synergy HT multi-detection microplate plate reader. […]"}, "[9]": {"conditions": "equimolar N-AcMet, 37° C.", "experimental": "NMR spectra were collected on a Varian 500 spectrometer equipped with a triple-resonance broadband inverse probe and a variable temperature unit. The 1-D ^1H NMR kinetic studies were performed in duplicate as a standard time-arrayed experiment using a variable delayed list. Incremented 1-D spectra were processed in exactly the same way and signals of aromatic amine ligands from platinum compounds were integrated. The relative concentrations of the platinum compound at each time point were calculated from peak integrals. […] Reactions of platinum compounds with N-AcMet were performed in NMR tubes containing 2 mM of the Pt complex and 2 mM (1 equiv) of N-AcMet in 10 mM PBS buffer, D2O, pH*7.4 at 37° C. […] Deuterated 3-(trimethylsilyl)propionic acid sodium salt (TMS-PFASS) was used as an internal standard. The pH* values are the measured pH values without correction for the effect of deuterium on the electrode.\n(pH*=refers to a pH measurement uncorrected for the effect of deuterium on the electrode.)"}, "[10]": {"conditions": "16 equiv 5′-dGMP, 37° C., PBS pH 7.4", "experimental": "The 1-D ^1H NMR kinetic studies were performed in duplicate as a standard time-arrayed experiment using a variable delayed list. Incremented 1-D spectra were processed in exactly the same way and signals of aromatic amine ligands from platinum compounds were integrated. The relative concentrations of the platinum compound at each time point were calculated from peak integrals. […] Reactions of platinum compounds with 5′-dGMP were performed in NMR tubes containing 2 mM of the platinum compounds and 32 mM (16 equiv) of 5′-dGMP in 10 mM PBS buffer, D2O, pH*7.4 at 37° C. Deuterated 3-(trimethylsilyl)propionic acid sodium salt (TMS-PFASS) was used as an internal standard. The pH* values are the measured pH values without correction for the effect of deuterium on the electrode."}}, "note": "Entries after “also recorded” stand apart in the source; their conditions may differ.", "data": [{"compound": "cis-[Pt(NH3)2(phenanthridine)Cl]NO3 [phenanthriplatin]", "values": [{"measurement": "type of inhibition of ethidium binding", "setting": "calf thymus DNA; 12-h incubation period", "result": "D"}, {"measurement": "type of inhibition of ethidium binding", "setting": "calf thymus DNA; 1 min incubation period", "result": "C"}, {"measurement": "time to complete aquation (equilibrium with aqua analogue)", "setting": "[1]", "result": "≤ 1", "unit": "h"}, {"measurement": "level of DNA-bound compound per amount added (rb vs. rf)", "setting": "pGLuc plasmid", "result": "almost identical to that of cisplatin"}, {"measurement": "rb (bound Pt/nucleotide)", "setting": "pGLuc plasmid; rf 0.0008, 16 h", "result": 0.0015}, {"measurement": "rb (bound Pt/nucleotide)", "setting": "pGLuc plasmid; rf 0.0019, 16 h", "result": 0.0019}, {"measurement": "rb (bound Pt/nucleotide)", "setting": "pGLuc plasmid; rf 0.0029, 16 h", "result": 0.0030}, {"measurement": "rb (bound Pt/nucleotide)", "setting": "pGLuc plasmid; rf 0.0060, 16 h", "result": 0.0053}, {"measurement": "transcription inhibition, in words", "setting": "[2]", "result": "as strongly as cisplatin; also recorded: as efficiently as cisplatin"}, {"measurement": "transcription inhibition, in words", "setting": "[3]", "result": "as strongly as cisplatin; also recorded: as efficiently as cisplatin"}]}, {"compound": "O=C1[O][Pt]2([NH][C@@H]3CCCC[C@H]3[NH]2)[O]C1=O", "note": "[oxaliplatin]", "values": [{"measurement": "IC50", "setting": "[4]; A549 (Lung), 72-h incubation, Table 3", "result": "8.79 ± 0.26", "unit": "µM"}, {"measurement": "IC50", "setting": "NTera2 (Testis) cells", "result": "1.21 ± 0.06", "unit": "µM"}, {"measurement": "IC50", "setting": "[5]; U2OS (Bone), Table 3", "result": "6.67 ± 0.59", "unit": "µM"}]}, {"compound": "O=[N+]([O-])[O-].[NH3+][Pt-2]([NH3+])([Cl])[n+]1cccc2ccccc21", "note": "(stereo not drawn) [cis-[Pt(NH3)2(quinoline)Cl]NO3]", "values": [{"measurement": "IC50", "setting": "[6]", "result": "12.2 ± 0.8", "unit": "µM"}, {"measurement": "IC50", "setting": "[7]", "result": "23.5 ± 1.6", "unit": "µM"}, {"measurement": "IC50", "setting": "[8]", "result": "38 ± 4.5", "unit": "µM"}, {"measurement": "IC50", "setting": "[4]; A549, 72-h incubation, Table 5", "result": "6.11 ± 0.68", "unit": "µM"}, {"measurement": "IC50", "setting": "[5]; U2OS, Table 5", "result": "23.5 ± 2.7", "unit": "µM"}]}, {"compound": "pyriplatin", "values": [{"measurement": "IC50", "setting": "[7]", "result": 82.1, "unit": "µM"}, {"measurement": "type of inhibition of ethidium binding", "setting": "calf thymus DNA; 12-h incubation period", "result": "C"}, {"measurement": "type of inhibition of ethidium binding", "setting": "calf thymus DNA; 1 min incubation period", "result": "C"}, {"measurement": "IC50", "setting": "[4]; A549, 72-h incubation, Table 5", "result": "62.1 ± 2.3", "unit": "µM"}, {"measurement": "time to complete aquation (equilibrium with aqua analogue)", "setting": "[1]", "result": "≤ 1", "unit": "h"}, {"measurement": "level of DNA-bound compound per amount added (rb vs. rf)", "setting": "pGLuc plasmid", "result": "almost identical to that of cisplatin"}, {"measurement": "Pt per plasmid", "setting": "pGLuc plasmid; rf 0.0016", "result": 13.33, "unit": "Pt per plasmid"}, {"measurement": "rb (bound Pt/nucleotide)", "setting": "pGLuc plasmid; rf 0.0016, 16 h", "result": 0.0017}, {"measurement": "Pt per plasmid", "setting": "pGLuc plasmid; rf 0.004", "result": 31.19, "unit": "Pt per plasmid"}, {"measurement": "rb (bound Pt/nucleotide)", "setting": "pGLuc plasmid; rf 0.004, 16 h", "result": 0.0039}, {"measurement": "Pt per plasmid", "setting": "pGLuc plasmid; rf 0.0076", "result": 57.96, "unit": "Pt per plasmid"}, {"measurement": "rb (bound Pt/nucleotide)", "setting": "pGLuc plasmid; rf 0.0076, 16 h", "result": 0.0073}, {"measurement": "Pt per plasmid", "setting": "pGLuc plasmid; rf 0.015", "result": 117.31, "unit": "Pt per plasmid"}, {"measurement": "rb (bound Pt/nucleotide)", "setting": "pGLuc plasmid; rf 0.015, 16 h", "result": 0.0015}, {"measurement": "transcription level (normalized against unplatinated plasmid)", "setting": "[2]; 12 h", "result": 55.2, "unit": "%"}, {"measurement": "transcription level (normalized against unplatinated plasmid)", "setting": "[2]; 60 h", "result": 66.8, "unit": "%"}, {"measurement": "transcription inhibition, in words", "setting": "[2]", "result": "less efficient than that of either cisplatin or phenanthriplatin by a factor of two"}, {"measurement": "reaction with N-AcMet more rapid than that for phenanthriplatin", "setting": "[9]", "result": "> 10", "unit": "fold"}, {"measurement": "second-order rate constant, reaction with N-AcMet", "setting": "[9]", "result": 0.156, "unit": "M⁻¹ s⁻¹"}, {"measurement": "pseudo-first order rate constant, reaction with 5′-dGMP", "setting": "[10]", "result": 0.29, "unit": "h⁻¹"}, {"measurement": "transcription level (normalized against unplatinated plasmid)", "setting": "[3]; 12 h", "result": 55.3, "unit": "%"}, {"measurement": "transcription level (normalized against unplatinated plasmid)", "setting": "[3]; 60 h", "result": 75.2, "unit": "%"}, {"measurement": "transcription inhibition, in words", "setting": "[3]", "result": "less efficient than that of either cisplatin or phenanthriplatin by a factor of two"}]}]}
